The record followed here is ChEMBL document CHEMBL1201862, “PubChem BioAssay data set” (2004).

Experiment in all cases: NCI tumour cell line growth inhibition, 48 h
Assay [1] has as its system RXF 393.
Assay [2] has as its system SK-MEL-28.
For assay [3], the system named is OVCAR-8.
The subject of assay [4] is OVCAR-3.
The subject of assay [5] is HT-29.
Assay [6] has as its system UACC-257.
Assay [7] relates to DU-145.
Assay [8] concerns SK-MEL-5.
In assay [9] the test system is NCI/ADR-RES.
The subject of assay [10] is NCI-H522.
For assay [11], the system named is K562.
Assay [12] concerns NCI-H23.
Assay [13] has as its system OVCAR-4.
Assay [14] deals with M14.
The test system of assay [15] is KM12.
Assay [16] relates to TK-10.
Assay [17] relates to COLO 205.
For assay [18], the system named is A549.
Assay [19] has as its system LOX IMVI.
Assay [20] concerns SR.

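Growth conditions: 96-well plates. Treatment: test compound, 48 hours, 5 concentrations. Analysis: linear interpolation between bracketing concentrations; unreached endpoints set to highest concentration. Here, GI50 denotes the concentration required for 50% inhibition of growth.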 Active and inactive are the calls of the source. Rule as the data show it: active = GI50 up to about 1.1 µM and inactive = higher.

As to `CCCNC1=Nc2ccccc2NC(C)C1` (stereo unspecified), the GI50 in [1], in assay [2], in [3], in assay [4], in assay [5] and in assay [6] was > 100 µM (inactive) each time. For the same compound, the GI50 in [7], in assay [8], in assay [9], in assay [10], in [11] and in assay [12] was > 100 µM (inactive) each time. Also, the GI50 in [13], in [14], in assay [15], in assay [16], in assay [17] and in [18] was > 100 µM (inactive) each time.

Take `Cn1ncc2ccc3[nH]c4ccccc4c(=O)c3c21`: the GI50 in [1] was 14.7 µM (inactive); in assay [2], 36.3 µM (inactive); in assay [3], 28.1 µM (inactive); in assay [4], 37.3 µM (inactive); in assay [5], 35 µM (inactive); in assay [19] it was 18.7 µM (inactive). Besides, the GI50 was 31 µM (inactive) in [6]; 17.5 µM (inactive) in assay [8]; 17.5 µM (inactive) in [10]; 31.6 µM (inactive) in assay [11]; 20.6 µM (inactive) in assay [12]; 23.9 µM (inactive) in [13]. In addition, the GI50 in assay [14] is 39.2 µM (inactive); in assay [15], 38.3 µM (inactive); in [16], 21.1 µM (inactive); in assay [17] it was 26.4 µM (inactive); in [18] it was 20.2 µM (inactive); in [20] it was 29.9 µM (inactive).

For `COc1ccc(/C=N\N2CC(=O)N3C4C=CC(CC4)N3C2=O)cc1` (stereo unspecified), the GI50 in [2] is > 100 µM (inactive); in assay [3], 58.1 µM (inactive); in assay [4], > 100 µM (inactive); in [5] it was > 100 µM (inactive); in assay [19], > 100 µM (inactive); in assay [6] it was > 100 µM (inactive). For the same compound, the GI50 in [7] is > 100 µM (inactive); in [8], 54.7 µM (inactive); in assay [9] it was 81.8 µM (inactive); in assay [11], > 100 µM (inactive); in assay [12], > 100 µM (inactive); in assay [14] it was > 100 µM (inactive). The GI50 in assay [15], in [16], in assay [17], in assay [18] and in assay [20] was > 100 µM (inactive) throughout.

As to `O=C(O/N=c1/ccc(=O)/c(=N\OC(=O)c2ccccc2)c1=O)c1ccccc1`, the GI50 in assay [1], in assay [2], in [3], in [4], in assay [5] and in assay [19] was > 100 µM (inactive) each time. For the same compound, the GI50 in assay [8] was > 100 µM (inactive); in [9], > 100 µM (inactive); in assay [10], > 100 µM (inactive); in assay [11], 39.4 µM (inactive); in assay [12], > 100 µM (inactive); in [13], > 100 µM (inactive). Moreover, the GI50 in assay [14], in [15], in assay [16], in assay [17], in [18] and in assay [20] was > 100 µM (inactive) in each case.

As to `COc1cc2oc(-c3ccc4c(c3)OCO4)c(OC)c(=O)c2c(O)c1OC`, the GI50 in assay [1], in assay [2], in assay [3], in [4], in assay [5] and in [19] was > 50 µM (inactive) throughout. For the same compound, the GI50 in assay [6] is > 50 µM (inactive); in assay [7] it was > 50 µM (inactive); in assay [8] it was > 50 µM (inactive); in assay [9], > 50 µM (inactive); in assay [10] it was > 50 µM (inactive); in [11] it was 27.9 µM (inactive). Besides, the GI50 in assay [12] is 35.6 µM (inactive); in assay [13] it was > 50 µM (inactive); in assay [14] it was > 50 µM (inactive); in assay [15], > 50 µM (inactive); in assay [16] it was > 50 µM (inactive); in assay [17], > 50 µM (inactive). Also, in assay [18], the GI50 is > 50 µM (inactive).

Regarding `O=c1c2ccccc2[nH]c2c(Cl)cc(Cl)c(NC3CCCCC3)c12`, the GI50 was 27 µM (inactive) in assay [2]; 20.7 µM (inactive) in [3]; 14.2 µM (inactive) in assay [4]; 16.3 µM (inactive) in assay [5]; 36.5 µM (inactive) in assay [19]; 23.6 µM (inactive) in assay [6]. Besides, the GI50 in [8] was 36.3 µM (inactive); in assay [9], 18.5 µM (inactive); in assay [10], 20.1 µM (inactive); in [11] it was 22.4 µM (inactive); in assay [12], 17 µM (inactive); in assay [13] it was 41.2 µM (inactive). Besides, the GI50 in assay [14] was 18.6 µM (inactive); in assay [15], 14.8 µM (inactive); in assay [16] it was 22.2 µM (inactive); in assay [17] it was 31.8 µM (inactive); in assay [18] it was 29.9 µM (inactive); in assay [20], 12 µM (inactive).

Take `C#CCC(O)c1ccc(OC)c(OCc2ccccc2)c1` (stereo unspecified): the GI50 in assay [1], in assay [2], in assay [3], in [4], in assay [5] and in assay [19] was > 100 µM (inactive) each time. For the same compound, the GI50 in assay [6] is 52.1 µM (inactive); in assay [7] it was > 100 µM (inactive); in assay [8], 46.9 µM (inactive); in assay [9], 82.2 µM (inactive); in assay [10], > 100 µM (inactive); in assay [11] it was 61.9 µM (inactive). The GI50 in assay [12], in [13], in assay [14], in assay [15], in assay [16] and in assay [17] was > 100 µM (inactive) throughout. Moreover, the GI50 in assay [18] is > 100 µM (inactive).

On to `COc1cc(CC(C)=O)cc(OC)c1`, for which the GI50 in [2] was > 100 µM (inactive); in [3] it was > 100 µM (inactive); in [4], 56.5 µM (inactive); in assay [5], 42.8 µM (inactive); in assay [6], > 100 µM (inactive); in assay [7], > 100 µM (inactive). In addition, the GI50 in assay [8] was 91.2 µM (inactive); in assay [9] it was 52.4 µM (inactive); in assay [11], 33.3 µM (inactive); in assay [12], > 100 µM (inactive); in [13], > 100 µM (inactive); in [14] it was > 100 µM (inactive). Moreover, the GI50 in assay [16] is > 100 µM (inactive); in [17] it was > 100 µM (inactive); in assay [18] it was > 100 µM (inactive); in [20], 26.6 µM (inactive).

`CC1C(=O)OCC2=CCN3CCC(OC(=O)C(C)C1(C)O)C23` (stereo unspecified): the GI50 in [2], in assay [3], in [4], in assay [5], in [19] and in assay [6] was > 100 µM (inactive) in each case. In addition, the GI50 in assay [7], in assay [8], in [9], in [10], in assay [11] and in [12] was > 100 µM (inactive) throughout. Moreover, the GI50 in assay [13], in assay [14], in [15], in assay [16], in assay [17] and in assay [18] was > 100 µM (inactive) throughout.

In the case of `Clc1ccc(Oc2ccc(/N=C/c3ccc(Cl)cc3Cl)cc2Cl)cc1`, the GI50 in assay [2] is 34.2 µM (inactive); in assay [3], 41.2 µM (inactive); in [4], 33.8 µM (inactive); in [5], 36.9 µM (inactive); in [19] it was 28.3 µM (inactive); in [6], 66.1 µM (inactive). Further, the GI50 in assay [7] is 64.6 µM (inactive); in assay [8] it was 36.1 µM (inactive); in assay [9] it was 25.7 µM (inactive); in assay [10], 25.2 µM (inactive); in assay [12], 40.8 µM (inactive); in [13] it was 44.5 µM (inactive). For the same compound, the GI50 is 29.4 µM (inactive) in assay [14]; 29.5 µM (inactive) in assay [15]; > 100 µM (inactive) in assay [16]; 64.7 µM (inactive) in assay [17]; 64.6 µM (inactive) in assay [18].

As to `C[C@@H]1C[C@@H]([C@H](O)CC2CC(=O)NC(=O)C2)C(=O)[C@@H](C)C1` [CYCLOHEXIMIDE], the GI50 was 0.0315 µM (active) in assay [1]; 0.0352 µM (active) in assay [2]; 0.044 µM (active) in assay [3]; 0.131 µM (active) in assay [4]; 0.0718 µM (active) in [5]; 0.0374 µM (active) in assay [19]. The GI50 in assay [6] is 0.0912 µM (active); in assay [8], 0.0248 µM (active); in [10], 0.0395 µM (active); in [11] it was 0.0528 µM (active); in [12] it was 0.0516 µM (active); in [13], 0.0366 µM (active). The GI50 in assay [14] was 0.0532 µM (active); in assay [15], 0.0202 µM (active); in [16], 0.0865 µM (active); in [17], 0.0352 µM (active); in assay [18], 0.0366 µM (active); in [20], 0.0416 µM (active).
